How the values were obtained:
Conditions in all cases: 72 h
[1] = system: Calu-3; assay: cell viability relative to DMSO; higher = less toxic
[2] = system: U2OS; assay: as above
[3] = system: Vero E6; assay: as above
[4] = system: HepG2; assay: as above
[5] = system: Caco-2; assay: as above
[6] = system: Calu-3; assay: relative viability EC50 (midpoint between 100% and the lowest measured viability); higher = less toxic
[7] = system: U2OS; assay: as above
[8] = system: Vero E6; assay: as above
[9] = system: HepG2; assay: as above
[10] = system: Caco-2; assay: as above
[11] = system: Calu-3; assay: drug sensitivity score (DSS) for viability; higher = more toxic; extreme values may be limits of the assay
[12] = system: U2OS; assay: as above
[13] = system: Vero E6; assay: as above
[14] = system: HepG2; assay: as above
[15] = system: Caco-2; assay: as above

Row | SMILES | cell viability ([1]; 1 nM) [%] | cell viability ([1]; 10 nM) [%] | cell viability ([1]; 100 nM) [%] | cell viability ([1]; 1000 nM) [%] | cell viability ([1]; 10000 nM) [%] | cell viability ([2]; 1 nM) [%] | cell viability ([2]; 10 nM) [%] | cell viability ([2]; 100 nM) [%] | cell viability ([2]; 1000 nM) [%] | cell viability ([2]; 10000 nM) [%] | cell viability ([3]; 1 nM) [%] | cell viability ([3]; 10 nM) [%] | cell viability ([3]; 100 nM) [%] | cell viability ([3]; 1000 nM) [%] | cell viability ([3]; 10000 nM) [%] | cell viability ([4]; 1 nM) [%] | cell viability ([4]; 10 nM) [%] | cell viability ([4]; 100 nM) [%] | cell viability ([4]; 1000 nM) [%] | cell viability ([4]; 10000 nM) [%] | cell viability ([5]; 1 nM) [%] | cell viability ([5]; 10 nM) [%] | cell viability ([5]; 100 nM) [%] | cell viability ([5]; 1000 nM) [%] | cell viability ([5]; 10000 nM) [%] | relative viability EC50 [6] [µM] | relative viability EC50 [7] [µM] | relative viability EC50 [8] [µM] | relative viability EC50 [9] [µM] | relative viability EC50 [10] [µM] | drug sensitivity score [11] | drug sensitivity score [12] | drug sensitivity score [13] | drug sensitivity score [14] | drug sensitivity score [15]
1 | COc1cc2c(cc1O)C(CCc1ccc(Cl)cc1)N(C)CC2 (stereo not given) [Ro-04-5595] | 93 | 94.6 | 102 | 96.6 | 92.1 | 100 | 96.2 | 95.8 | 95.1 | 97.9 | 106 | 108 | 101 | 102 | 90.1 | 103 | 101 | 102 | 99 | 80.1 | 102 | 97.2 | 94.4 | 100 | 102 | > 10 | > 10 | > 10 | > 10 | > 10 | 0 | 0 | 0 | 0.7 | 0
2 | OC[C@H]1O[C@@H](OCCc2ccc(O)cc2)[C@H](O)[C@@H](O)[C@@H]1O [salidroside] | 96 | 106 | 102 | 87.2 | 113 | 102 | 93.9 | 96 | 103 | 101 | 95.5 | 94.8 | 93.2 | 99.8 | 107 | 91.4 | 97 | 109 | 87 | 104 | 103 | 92.2 | 92.3 | 106 | 104 | > 10 | > 10 | > 10 | > 10 | > 10 | 0 | 0 | 0 | 0 | 0
3 | Cc1c(C(=O)NN2CCOCC2)nn(-c2ccc(Cl)cc2Cl)c1-c1ccc(I)cc1 [AM-281] | 102 | 113 | 104 | 94.5 | 88.1 | 96.9 | 101 | 95.5 | 100 | 100 | 98.3 | 96.6 | 98.4 | 94.5 | 106 | 105 | 95.7 | 102 | 101 | 103 | 96.8 | 100 | 96.2 | 96.2 | 107 | > 10 | > 10 | > 10 | > 10 | > 10 | 0.2 | 0 | 0 | 0 | 0
4 | CN[C@@H](C)CC1CCCCC1 [propylhexedrine] | 97.4 | 104 | 104 | 90.2 | 97.9 | 104 | 99.6 | 100 | 99.2 | 100 | 99.2 | 110 | 106 | 104 | 95.7 | 102 | 101 | 99.3 | 97.8 | 94.1 | 88 | 111 | 86 | 79.4 | 102 | > 10 | > 10 | > 10 | > 10 | > 10 | 0 | 0 | 0 | 0 | 0
5 | CC(C)(C)NCC(O)COc1cccc2[nH]c(C#N)cc12 (stereo not given) [cyanopindolol] | 85.4 | 105 | 100 | 96.8 | 92.8 | 100 | 98.8 | 96.7 | 94.7 | 101 | 102 | 103 | 100 | 104 | 97 | 93 | 95.7 | 89.6 | 102 | 95.8 | 103 | 103 | 95.8 | 99.7 | 97.5 | > 10 | > 10 | > 10 | > 10 | > 10 | 0 | 0 | 0 | 0 | 0
6 | Nc1ncnc2c1nc(Br)n2[C@@H]1O[C@@H]2COP(=O)(O)O[C@H]2[C@H]1O [8-bromo-cAMP] | 92.8 | 104 | 95.9 | 103 | 95.8 | 102 | 96.8 | 105 | 99 | 102 | 100 | 102 | 103 | 102 | 96 | 95.2 | 96.5 | 93.1 | 98.2 | 85.7 | 106 | 95.8 | 97.8 | 98.5 | 81.5 | > 10 | > 10 | > 10 | > 10 | > 10 | 0 | 0 | 0 | 0 | 0.7
7 | C/C(=C\c1ccc(C(=O)O)cc1)c1ccc2c(c1)C(C)(C)CCC2(C)C [TTNPB] | 95 | 95.6 | 84.3 | 81.7 | 77.2 | 99.3 | 99.2 | 94.3 | 93.2 | 92.5 | 94.7 | 102 | 98.3 | 97.9 | 102 | 94.2 | 106 | 108 | 100 | 108 | 98.1 | 95.1 | 95 | 95.3 | 91.9 | > 10 | > 10 | > 10 | > 10 | > 10 | 3.9 | 0 | 0 | 0 | 0
8 | CC[N+](CC)(CC(=O)Nc1c(C)cccc1C)Cc1ccccc1 [denatonium-benzoate] | 96.7 | 101 | 98.3 | 92.8 | 105 | 91 | 96.1 | 95.9 | 103 | 104 | 95.1 | 99.2 | 95.3 | 88.9 | 111 | 100 | 99.3 | 108 | 100 | 116 | 100 | 102 | 99.8 | 110 | 112 | > 10 | > 10 | > 10 | > 10 | > 10 | 0 | 0 | 0 | 0 | 0
9 | O=C(COc1ccc(Cl)cc1)N1CCN(Cc2ccc3c(c2)OCO3)CC1 [fipexide] | 101 | 93.1 | 103 | 93.5 | 110 | 102 | 100 | 101 | 95.2 | 96.2 | 97.6 | 99.9 | 101 | 101 | 97.6 | 83.9 | 90.8 | 86.6 | 93.8 | 102 | 98.8 | 90.1 | 93.5 | 93.4 | 88.4 | > 10 | > 10 | > 10 | > 10 | > 10 | 0 | 0 | 0 | 0 | 0
10 | Cn1c(COc2ccc(CC3SC(=O)NC3=O)cc2)nc2ccccc2c1=O (stereo not given) [balaglitazone] | 95 | 95 | 103 | 103 | 84.3 | 96.4 | 95 | 97.3 | 91.8 | 92 | 98.2 | 94.8 | 88.6 | 93.4 | 101 | 88.5 | 104 | 85.7 | 100 | 99.2 | 91.7 | 106 | 90.7 | 96.4 | 85.3 | > 10 | > 10 | > 10 | > 10 | > 10 | 0.2 | 0 | 0 | 0 | 0.1
11 | CSc1ccccc1OCC(O)CNC(C)C (stereo not given) [tiprenolol] | 104 | 106 | 100 | 97.3 | 103 | 97.9 | 96.2 | 106 | 101 | 99.3 | 100 | 98.5 | 98.6 | 91.8 | 86.7 | 98.6 | 92.6 | 102 | 99.9 | 98.5 | 108 | 102 | 93.6 | 83 | 113 | > 10 | > 10 | > 10 | > 10 | > 10 | 0 | 0 | 0.3 | 0 | 0
12 | CCn1nc(C)c2c1C(c1ccccc1)=NCC(=O)N2 [ripazepam] | 97.4 | 102 | 95.6 | 109 | 95.8 | 96.4 | 99.1 | 93.2 | 102 | 98.2 | 95.6 | 99.9 | 104 | 100 | 97.1 | 106 | 100 | 98.9 | 92.2 | 113 | 96.9 | 103 | 104 | 101 | 124 | > 10 | > 10 | > 10 | > 10 | > 10 | 0 | 0 | 0 | 0 | 0
13 | CCNC1=Nc2ccc(Cl)cc2C(C)(c2ccccc2)O1 (stereo not given) [etifoxine] | 94.4 | 97.2 | 102 | 102 | 90.7 | 92.1 | 96.9 | 99.8 | 98.3 | 98 | 94.8 | 98.1 | 95.5 | 99.3 | 112 | 95.7 | 100 | 101 | 107 | 95.3 | 90.1 | 102 | 96.1 | 92.2 | 97.3 | > 10 | > 10 | > 10 | > 10 | > 10 | 0 | 0 | 0 | 0 | 0
14 | C=CC[C@@H]1/C=C(\C)C[C@H](C)C[C@H](OC)[C@H]2O[C@@](O)(C(=O)C(=O)N3CCCC[C@H]3C(=O)O[C@H](/C(C)=C/[C@@H]3CC[C@@H](O)[C@H](OC)C3)[C@H](C)[C@@H](O)CC1=O)[C@H](C)C[C@@H]2OC [tacrolimus] | 99.1 | 103 | 96.6 | 100 | 107 | 96.9 | 102 | 98.7 | 104 | 98 | 96.3 | 91.6 | 88.5 | 90.3 | 108 | 108 | 99.6 | 103 | 98.2 | 104 | 99.8 | 101 | 88.8 | 103 | 93.8 | > 10 | > 10 | > 10 | > 10 | > 10 | 0 | 0 | 0 | 0 | 0
